One assay concerns the target T1, long form of human GPR120 (Homo sapiens, UniProt Q5NUL3).
T1 construct: host or cells: PathHunter CHO-K1 GPR120 β-Arrestin Cell Line
The assay can be described thus: Human GPR120 DiscoveRx PathHunter Beta-Arrestin assay, Procedure β-arrestin A. The following applies: PathHunter CHO-K1 GPR120 β-Arrestin cell line, 3000 cells per well, read-out: hGPR120 β-arrestin A EC50. It is filed as cell-based. The text has this:
The binding of an agonist (medium/long chain fatty acids or small molecule agonists) to the G-protein-coupled receptor GPR120 activates phospholipase C, leading to release of intracellular Ca^+2 through the generation of inositol 1,4,5-trisphosphate (InsP3 or IP3). GPR120 activation can also trigger intracellular signaling via recruitment of Beta-Arrestin. In the present method, agonist-induced activation of the human GPR120 receptor is monitored through the use of PathHunter CHO-K1 GPR120 Beta-Arrestin Cell Line engineered by DiscoveRx, as detailed below. The cell lines are designed to co-express both the ProLink/Enzyme Donor (PK)-tagged GPCR and the Enzyme […] (EA)-tagged Beta-Arrestin fusion proteins. Upon GPR120 receptor stimulation/activation, the EA-tagged Beta-Arrestin portion is translocated to the tagged receptor, where the two enzyme fragments are brought within close proximity. Under these conditions, these fragments can interact and form an active Beta-gal enzyme complex through Enzyme Fragment Complementation (EFC). This active Beta-gal complex can enzymatically hydrolyse the substrate to produce a detectable light signal; therefore, activation as a function of agonist concentration can be expressed as an EC50 value to determine relative compound activities. This in vitro assay therefore serves to assess compound agonist activity of the GPR120. Procedure β-Arrestin A: In Procedure β-arrestin A, the cell used were PathHunter CHO-K1 GPR120 β-Arrestin Cell Line, expressing the long form of human GPR120 (Genbank accession number NM 181745), with 3000 cells per well. Procedure β-Arrestin B: In Procedure 3-arrestin B the cells used were PathHunter CHO-K1 GPR120S β-Arrestin Cell Line, expressing the short form of the GPR120 receptor (Accession #NM_181745), with 5000 cells/well. Assay Procedure:
The selected CHO-K1 GPR120 β-Arrestin cells were cultured in Ham's F12 media supplemented with 10% fetal bovine serum (FBS), 1% Glutamine, lx p/s, 800 μg/mL G418 and 300 μg/mL Hygromycin B (for selection). Cell stocks were maintained and grown in a sub-confluent state using standard cell culture procedures. The day before the experiment, the cells were harvested with non-enzymatic cell dissociation buffer and re-suspended in complete growth media at the desired concentration. A Corning 384-plate was then seeded with the proper number of cells in a volume of 25 μL, per well. The seeded plates were incubated overnight at 37° C.
On the day of the experiment, the Assay Buffer containing (a) HBSS with Ca^++ and Mg^++, (b) 20 mM HEPES, and (c) 0.1% BSA stabilizer (pH 7.4) was prepared. The growth medium was gently removed from the cell plates and 20 μL of Assay Buffer added to each well. The plate was then incubated at 37° C. for 60 min. Test compounds were serially diluted in Assay Buffer to desired concentrations (more particularly to one or more of the following μM concentrations: 25, 12.5, 6.25, 3.125, 1.5625, 0.78125, 0.390625, 0.1953125, 0.09765625, 0.048828125, 0.024414063, 0.012207031). Five μL of compound dilution was then added to each well and the plate incubated at 37° C. for 90 min. The detection reagents were prepared according to the manufacture's instruction. Twelve μL of the detection reagents were added to each well and the plate incubated at room temperature for 60 min.
The plates were read on an EnVision instrument, using Protocol name: Luminescence, Plate type: 384 Costar, Measurement height: 3 mm, Measurement time: 1 s, Aperture: 384 Plate aperture. The % activity relative to the positive control was calculated using the following equation:
The % Activity values were plotted versus the concentration of test compound and fitted to a sigmoidal dose-response curve with a Hill slope=1 (fixed value) using nonlinear regression with GraphPad Prism 5.0 to calculate the EC50 values. […]
T1 sequence (Q5NUL3 1-377 isoform Q5NUL3-1): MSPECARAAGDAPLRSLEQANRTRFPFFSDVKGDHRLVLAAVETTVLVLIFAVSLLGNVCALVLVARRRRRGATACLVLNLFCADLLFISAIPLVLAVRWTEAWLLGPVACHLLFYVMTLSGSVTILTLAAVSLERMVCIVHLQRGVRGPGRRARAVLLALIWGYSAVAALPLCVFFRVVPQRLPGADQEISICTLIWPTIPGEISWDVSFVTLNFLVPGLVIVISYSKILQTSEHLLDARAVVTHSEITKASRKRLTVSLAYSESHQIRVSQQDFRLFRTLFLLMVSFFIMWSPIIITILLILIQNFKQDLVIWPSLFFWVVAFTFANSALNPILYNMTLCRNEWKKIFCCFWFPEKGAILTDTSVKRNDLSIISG
T1 sequence (P32121 whole entry partner): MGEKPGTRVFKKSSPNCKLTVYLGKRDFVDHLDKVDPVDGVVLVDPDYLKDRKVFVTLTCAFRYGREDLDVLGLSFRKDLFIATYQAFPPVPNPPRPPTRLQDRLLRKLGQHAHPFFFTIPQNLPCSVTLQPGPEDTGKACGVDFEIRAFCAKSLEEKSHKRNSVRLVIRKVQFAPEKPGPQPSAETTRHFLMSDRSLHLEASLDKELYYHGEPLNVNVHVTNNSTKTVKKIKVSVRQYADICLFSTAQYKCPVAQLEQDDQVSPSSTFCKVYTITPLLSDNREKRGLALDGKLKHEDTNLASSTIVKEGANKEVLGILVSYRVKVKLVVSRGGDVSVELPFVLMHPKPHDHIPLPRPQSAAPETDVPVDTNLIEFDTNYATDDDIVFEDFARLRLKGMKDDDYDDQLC
One may read the EC50 as the concentration giving half of the maximal effect. For `O=C(O)CCc1ccc(OCc2sc(Cl)cc2-c2ccc(Cl)cc2)c(F)c1F` [Cpd 28, 3-(4-[[5-chloro-3-(4-chlorophenyl)thiophen-2-yl]methoxy]-2,3-difluorophenyl)propanoic acid], the EC50 came out at 186 nM.

The next assay deals with T2, Human GPR120 short form (Homo sapiens, UniProt Q5NUL3).
T2 construct: expressed in transfected cells
T2 sequence (Q5NUL3 1-361): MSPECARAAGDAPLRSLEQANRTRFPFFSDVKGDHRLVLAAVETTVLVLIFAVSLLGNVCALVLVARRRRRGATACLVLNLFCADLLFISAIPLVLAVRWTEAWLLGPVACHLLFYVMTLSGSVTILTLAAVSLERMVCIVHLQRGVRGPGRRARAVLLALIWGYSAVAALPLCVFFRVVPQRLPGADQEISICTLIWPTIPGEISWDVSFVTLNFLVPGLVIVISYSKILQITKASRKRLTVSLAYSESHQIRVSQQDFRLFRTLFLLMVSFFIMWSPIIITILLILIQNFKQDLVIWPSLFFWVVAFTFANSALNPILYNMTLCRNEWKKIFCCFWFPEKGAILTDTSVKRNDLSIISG
Description: Human GPR120 calcium flux assay (FLIPR), Procedure Calcium A. Format: cell-based. The following applies: HEK-293 cells expressing human GPR120 short form, 2500 cells/well; read-out: GPR120 Ca2+ Assay A EC50. The text has this: This in vitro assay serves to assess test compound agonist activity against the short splice variant (SVS with Accession number NM_001195755.1 confirmed by sequencing data) of the GPR120 receptor. The Human Short splice variant #2 (NM_001195755.1) is missing an in-frame coding exon compared to variant 1 (the Human Long splice variant NM_181745.3), resulting in a shorter isoform (GPR120-S) lacking a 16 aa protein segment compared to isoform GPR120-L. The assay platform utilizes HEK-293 cells stably transfected to express the Human GPR120 short form. These cells are first loaded with the Ca^+2 sensitive dye, Fluo-4 NW. Upon stimulation, intracellular released Ca^+2 can bind to the dye and alter its fluorescence intensity. This increase in fluorescence signal, and thus the flux in intracellular [Ca^2+], is detected and quantitated by fluorescence imaging using a FLIPR reader. The effect of the agonist is measured as a function of concentration and used to calculate an EC50 based upon a response curve.
In this procedure 2500 cells/well were employed.
A Human GPR120 clone (Genbank accession number NM_001195755.1) was placed into the pcDNA3.1 mammalian expression vector carrying the neomycin resistance gene. A stable mammalian cell was generated by placing the above clone into a HEK293 background. Clonal cells responding to long chain fatty acids had expression levels of GPR120 confirmed by RT-qPCR. Human HEK-GPR120 cells were cultured in Dulbecco's Modified Eagle's Medium (DMEM)/F12 medium supplemented with 10% fetal bovine serum (FBS), 1% L-Glutamine and 1% penicillin/streptomycin and 0.5 mg/ml G-418. Cells were split 2 times a week to keep the cells in the log-phase growth.
In preparation for the assay, HEK cells stably transfected with Human GPR120 (2.5K cells per well in 25 uL growth medium) were seeded into 384-well plates and then incubated overnight (37° C., 5% CO2). The next day, the media was changed to 20 μL assay buffer and the cell starved for 1 h at 37° C. The dye loading solution (2× dye) was prepared using 10 mL assay buffer, 100 μL of 250 mM probenecid, 1 bottle of Component A, and 20 μl of dye in DMSO. Twenty μL of the 2× dye loading buffer was then added to each well. The plates were incubated at 37° C. for 30 min, then at room temperature for an additional 15 minutes, before performing the assay on FLIPR. Test compounds were prepared in assay buffer (2 uL of cpd+198 uL assay buffer, final DMSO in assay plate is 0.2%) at the desired concentration, more particularly at 100, 50, 25, 12.5, 6.25, 3.125, 1.562, 0.781, 0.391, 0.195, 0.098, 0.049, 0.024 and 0.012 μM.
The assay was performed on a FLIPR plate reader using the following parameters. Baseline was read for 10 seconds at 1 sec intervals. The program was set to transfer 10 μL of ligand from compound plate to cell plate after baseline reading. Aspiration was executed at: 10 μL/sec speed, 4.6 μL height; Dispensing was executed at: 30 μL/sec speed, 45 μL height. After compound addition, each well was read for 300 sec, with measurements collected at 1 sec intervals.
The kinetic data from the FLIPR was based upon a 5 minute window for data collection. The fluorescence of each sample well was used for individual calculations of a normalized RFU value, which was defined as maximum response minus the minimum response. The normalized fluorescence reading (RFU) was calculated as follows: RFU=Fmax−Fmin The data were fitted to a sigmoidal dose-response curve with a variable Hill slope (<2) using nonlinear regression with GraphPad Prism 5.0 to calculate the EC50 values. The Fitting Equation was: Y=Bottom+(Top−Bottom)/(1+10^((Log EC50−X)*HillSlope)), where X is the log of the concentration and Y is the response.
A general note: Calcium flux is commonly read through the fluorescence of an indicator in the cells.
For the compound `Cc1c(CCC(=O)O)ccc(OCc2csnc2-c2ccc(Cl)s2)c1C` [Cpd 204, 3-(4-((3-(5-chlorothiophen-2-yl)isothiazol-4-yl)methoxy)-2,3-dimethylphenyl)propanoic acid], the EC50 is 496 nM.
Regarding `Cc1cc(OCc2c(-c3c(F)cc(Cl)cc3F)nsc2C(F)(F)F)c(F)cc1CCC(=O)O` [Cpd 207, 3-(4-((3-(4-chloro-2,6-difluorophenyl)-5-(trifluoromethyl)isothiazol-4-yl)methoxy)-5-fluoro-2-methylphenyl)propanoic acid], the EC50 amounted to 566 nM.
Same read-out and setting: for `Cc1ccc(-c2snc(-c3ccccc3)c2COc2c(F)cc(CCC(=O)O)cc2F)c(F)c1` [Cpd 211, 3-(3,5-difluoro-4-[[5-(2-fluoro-4-methylphenyl)-3-phenyl-1,2-thiazol-4-yl]methoxy]phenyl)propanoic acid] the value was 597 nM.
On the same count and under the same terms, for `O=C(O)CCc1cc(F)c(OCc2c(C3CCOC3)nsc2C(F)(F)F)c(F)c1` (stereo not drawn) [Cpd 214, 3-(3,5-difluoro-4-((3-(tetrahydrofuran-3-yl)-5-(trifluoromethyl)isothiazol-4-yl)methoxy)phenyl)propanoic acid] the value was 606 nM.
The same measure, in the same setting: for `CCc1ccc(-c2nsc(CC)c2COc2ccc(CCC(=O)O)c(C)c2C)cc1` [Cpd 217, 3-(4-[[5-ethyl-3-(4-ethylphenyl)-1,2-thiazol-4-yl]methoxy]-2,3-dimethylphenyl)propanoic acid] the value was 677 nM.
In the case of `CCCc1ccc(-c2snc(Cl)c2COc2ccc(CCC(=O)O)c(C)c2C)cc1` [Cpd 218, 3-(4-[[3-chloro-5-(4-propylphenyl)-1,2-thiazol-4-yl]methoxy]-2,3-dimethylphenyl)propanoic acid], the EC50 was found to be 688 nM.
Regarding `CCc1ccc(-c2nsc(C(F)(F)F)c2COc2ccc3c(c2)OCC3CCO)cc1` (stereo not drawn) [Cpd 220, 2-(6-[[3-(4-ethylphenyl)-5-(trifluoromethyl)-5H-1[3],2-thiazol-4-yl]methoxy]-2,3-dihydro-1-benzofuran-3-yl)ethan-1-ol], the EC50 was determined as 702 nM.
Same read-out and setting: for `O=C(O)CCc1ccc(OCc2csnc2-c2ccc(Cl)s2)c(F)c1F` [Cpd 226, 3-(4-((3-(5-chlorothiophen-2-yl)isothiazol-4-yl)methoxy)-2,3-difluorophenyl)propanoic acid] the value was 849 nM.
For the compound `CCc1ccc(-c2nsc(OC)c2COc2ccc(CCC(=O)O)c(C)c2C)cc1` [Cpd 228, 3-(4-[[3-(4-ethylphenyl)-5-methoxy-1,2-thiazol-4-yl]methoxy]-2,3-dimethylphenyl)propanoic acid], the EC50 was 923 nM.
Same read-out and setting: for `Cc1ccc(-c2snc(C(F)(F)F)c2COc2ccc(CCC(=O)O)c(C(F)(F)F)c2)c(C)c1` [Cpd 232, 3-(4-[[5-(2,4-dimethylphenyl)-3-(trifluoromethyl)-1,2-thiazol-4-yl]methoxy]-2-(trifluoromethyl)phenyl)propanoic acid] the value was 1090 nM; for `CCc1ccc(-c2nsc(-c3ccccc3)c2COc2ccc(CCC(=O)O)c(C)c2C)cc1` [Cpd 233, 3-(4-[[3-(4-ethylphenyl)-5-phenyl-1,2-thiazol-4-yl]methoxy]-2,3-dimethylphenyl)propanoic acid], 1100 nM.
On the same count and under the same terms, for `O=C(O)CCc1cc(Br)c(OCc2c(-c3ccc(Cl)cc3)nsc2C(F)(F)F)c(Br)c1` [Cpd 241, 3-(3,5-dibromo-4-[[3-(4-chlorophenyl)-5-(trifluoromethyl)-1,2-thiazol-4-yl]methoxy]phenyl) propanoic acid] the value was 450 nM; for `CCc1ccc(-c2nsc(C(F)(F)F)c2COc2ccc(CCC(=O)O)c(C(F)(F)F)c2C)cc1` [Cpd 242, 3-(4-[[3-(4-ethylphenyl)-5-(trifluoromethyl)-1,2-thiazol-4-yl]methoxy]-3-methyl-2-(trifluoro-methyl)phenyl)propanoic acid], 1290 nM.
Regarding `Cc1c(/C=C/C(=O)O)ccc(OCc2c(-c3ccc(Cl)cc3)nsc2C(F)(F)F)c1C` [Cpd 244, (E)-3-(4-((3-(4-chlorophenyl)-5-(trifluoromethyl)isothiazol-4-yl)methoxy)-2,3-dimethylphenyl)acrylic acid], the EC50 was over 5000 nM.
